Reference: US12534439B2, “Xanthohumol derivatives and methods for making and using” (Oregon State University, priority 2021, dated 2026)

Tests used:
[1] = system: C2Cl2 cells; conditions: cited from earlier work
[2] = system: 3T3L1 cells; experiment: MTT cell viability assay in differentiated 3T3L1 adipocytes; type: cell-based, murine
Procedure: (§1) To assess the toxicity of 4-(5-(4-hydroxyphenyl)-1-methyl-1h-pyrazol-3-yl)-5-methoxy-2-(3-methylbut-2-en-1-yl)benzene-1,3-diol (XP), in vitro cell viability assays were performed on several cell lines. HepG2, 3T3L1 and C2Cl2 cells were exposed to XP and cell viability was assessed using an MTT assay. At concentrations lower than 50 μM, XP had no effect on the viability of the human liver cancer cell lines HepG2 and murine myoblast cell lines C2Cl2 with respect to the control treatment (FIGS. 11A-11B). […] This establishes that XP is safe to use in vivo at dosages similar to xanthohumol.
(§2) Cell Viability Assays. Cells were seeded in 96-well plates 24 hours prior to adding the compound. HepG2 cells were seeded at a density of 5×10^4 cells/mL and C2Cl2 at 1×10^4 cells/mL in order to reach 80% confluency at the beginning of the experiment. After 24 hours, the culture medium was replaced with fresh medium containing various concentrations ranging between 0 and 200 μM of XP. The cells were incubated in the presence of the compound for 24 hours, at which time, the MTT viability assay was carried as previously described. […] The cells were incubated for 3 hours and then acidified with 100% isopropanol for 15 minutes before absorbance reading at 570 nm on a BioTek Synergy HT plate reader.

[3] = system: C2Cl2 cells; experiment: MTT cell viability assay in C2Cl2 cells; type: cell-based, murine; conditions: 24 hours
Procedure: as §1, §2

[4] = system: HFD-fed C57BL/6J mice; experiment: Follow-up study: XP given after 4 weeks of HFD pre-conditioning (Example 8); type: in vivo; conditions: for Decrease in weight gain, average: between weeks 9 and 12, versus HFD without compound
Text: This example concerns the effects of administering 4-(5-(4-hydroxyphenyl)-1-methyl-1H-pyrazol-3-yl)-5-methoxy-2-(3-methylbut-2-en-1-yl)benzene-1,3-diol to mice after a pre-conditioning phase of 4 weeks during which animals were fed a high-fat diet (HFD) or a low-fat diet (LFD). Forty 9-week old wild-type (WT) male C57BL/6J mice were obtained from Jackson Laboratory (Bar Harbor, ME, USA). The mice were housed in ventilated cages under a 12-12-hr light-dark cycle. Of the 40 mice, 32 were fed a HFD (Dyets Inc., Bethlehem, PA, USA) containing 60%, 20% and 20% total calories from fat, carbohydrate and protein, respectively. The remaining 8 mice were fed a LFD (Dyets Inc., Bethlehem, PA, USA), containing 11%, 70% and 19% total calories from fat, carbohydrate and protein, respectively. XP was first dissolved in a mixture of oleic acid:propylene glycol:Tween 80 (0.9:1:1 by weight) before the solution was mixed into the HFD at a concentration of 0.066% to reach a dose of 60 mg/kg body weight/day. After 4 weeks of HFD feeding, the XP-containing HFD was given to 16 of the 32 HFD-pretreated mice for 8 weeks. Sixteen mice in HFD-pretreatment group received a HFD control diet that contained an identical amount of the mixture of oleic acid:propylene glycol:Tween 80 (0.9:1:1 by weight). The LFD-fed mice were continued on the LFD diet. Food intake and body weights were recorded weekly. The mice were euthanized at week 12.

[5] = system: LPS-activated RAW 264.7 cells; experiment: Nitric oxide (NO) assay, Griess reagent; type: cell-based; conditions: LPS 1 μg/mL, 24 hours
Procedure: Nitric Oxide (NO) Assay. NO secreted by LPS-activated RAW 264.7 cells into the culture medium was determined as nitrite by the Griess reagent. RAW 264.7 1 cells obtained from the American Type Culture Collection (Manassas, VA, USA) were cultured in DMEM supplemented with 2 mM glutamine, antibiotics (100 U/mL penicillin and 100 μg/mL streptomycin), and 10% heat-inactivated fetal bovine serum. The cells were initially grown in 75 cm^2 culture flasks at 37° C. in a humidified incubator with 5% CO2. After reaching 80% confluency, the cells were split by seeding them on 96-well plates (0.2 mL/well) at a density of 1.5×10^5 cells/mL. After a 24-hour incubation at 37° C., the cells were treated with LPS (1 μg/mL) with or without test compounds in various concentrations. Vehicle control cells were treated with dimethyl sulfoxide alone at a final concentration of 0.1%. Culture media from control and treated cells were collected after 24 hours of incubation and were frozen at −80° C. before analysis. For the determination of NO (as […]), […], aliquots of the thawed culture media were mixed with an equal volume of Griess reagent on a 96-well plate. […] The samples were incubated for 10 minutes at room temperature and then the absorbance was read at 550 nm using a SpectraMax 190 (Molecular Devices, Sunnyvale, CA) plate reader.

SMILES	Cytotoxic concentration [1]	Concentration without effect on cell viability ([2]; 3T3L1, MTT)	Concentration at which dose-dependent reduction in cell viability occurred ([2]; differentiated 3T3L1 adipocytes, MTT)	Concentration without effect on cell viability [3]	Concentration without effect on cell viability ([3]; listed as 4-(5-(4-hydroxyphenyl)-1-methyl-1H-pyrazol-3-yl)-5-methoxy-2-(3-methylbut-2-en-1))	Weight gain versus control HFD-fed mice ([4]; 60 mg/kg body weight/day in HFD for 8 weeks after 4 weeks HFD)	Decrease in weight gain, average [4]	Decrease in weight gain, average ([4]; listed as 4-(5-(4-hydroxyphenyl)-1-methyl-1h-pyrazol-3-yl)-5-methoxy-2-(3-methylbut-2-en-1))	Food intake versus control ([4]; mouse, in vivo)	Concentration from which anti-inflammatory activity (decreased NO production) was displayed [5]
COc1cc(O)c(CC=C(C)C)c(O)c1C(=O)/C=C/c1ccc(O)cc1 [XN, xanthohumol]	above 25 μM	–	–	–	–	–	–	–	–	–
COc1cc(O)c(CC=C(C)C)c(O)c1-c1cc(-c2ccc(O)cc2)n(C)n1 [XP, 4-(5-(4-hydroxyphenyl)-1-methyl-1H-pyrazol-3-yl)-5-methoxy-2-(3-methylbut-2-en-1-yl)benzene-1,3-diol]	–	up to 5 μM	10 µM	lower than 50 μM	up to 25 μM	gained significantly less weight	about 5%	5%	no difference	≥ 10 µM
